According to article PMC3361267 (Journal of Medicinal Chemistry, 2012):
Entries after “also recorded” stand apart in the source; their conditions may differ. Like-named read-outs stand apart in the source and are kept apart here. *1 amine or outer side, *2 acyl side, *3 side chain or, on linkers, in order; H or OH if unused. Where a SMILES comes first, the peptide text is derived from it. Bridges are numbered along the chain shown (N, C = ends). [ ]: non-standard residue; d: D form. X1 = O=C([C@@H](N[*:1])c1c([*:3])[nH]c2ccccc12)[*:2]; Leu(4R-OH,5-OH) = C[C@](O)(CO)C[C@H](N)C(=O)O; cisHyp = O=C(O)[C@@H]1C[C@H](O)CN1

Key:
[1] = molecular target: T1, OATP1B1 (Homo sapiens, UniProt Q9Y6L6)
T1 sequence (Q9Y6L6 1-691): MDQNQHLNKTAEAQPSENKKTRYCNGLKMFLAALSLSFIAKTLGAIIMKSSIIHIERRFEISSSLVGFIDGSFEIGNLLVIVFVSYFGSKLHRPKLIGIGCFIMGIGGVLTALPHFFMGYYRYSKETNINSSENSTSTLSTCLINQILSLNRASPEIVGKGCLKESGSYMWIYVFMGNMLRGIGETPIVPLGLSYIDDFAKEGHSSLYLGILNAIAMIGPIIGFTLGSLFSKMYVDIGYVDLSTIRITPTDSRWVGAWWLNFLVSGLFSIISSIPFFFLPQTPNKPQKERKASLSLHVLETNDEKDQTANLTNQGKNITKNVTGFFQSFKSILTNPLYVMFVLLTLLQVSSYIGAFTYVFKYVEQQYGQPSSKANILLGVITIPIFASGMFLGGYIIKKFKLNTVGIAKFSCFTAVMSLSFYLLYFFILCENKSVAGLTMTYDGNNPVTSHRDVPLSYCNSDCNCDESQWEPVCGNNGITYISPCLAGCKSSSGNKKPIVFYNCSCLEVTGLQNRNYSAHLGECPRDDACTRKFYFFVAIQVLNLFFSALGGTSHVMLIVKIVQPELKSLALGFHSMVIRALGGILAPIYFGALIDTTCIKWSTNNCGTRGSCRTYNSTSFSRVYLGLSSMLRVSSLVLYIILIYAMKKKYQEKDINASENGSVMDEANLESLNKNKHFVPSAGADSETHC

[2] = molecular target: T2, OATP1B3 (Homo sapiens, UniProt Q9NPD5); conditions: for classification as OATP1B3 inhibitor/stimulator (single-point): 20 μM
T2 sequence (Q9NPD5 1-702): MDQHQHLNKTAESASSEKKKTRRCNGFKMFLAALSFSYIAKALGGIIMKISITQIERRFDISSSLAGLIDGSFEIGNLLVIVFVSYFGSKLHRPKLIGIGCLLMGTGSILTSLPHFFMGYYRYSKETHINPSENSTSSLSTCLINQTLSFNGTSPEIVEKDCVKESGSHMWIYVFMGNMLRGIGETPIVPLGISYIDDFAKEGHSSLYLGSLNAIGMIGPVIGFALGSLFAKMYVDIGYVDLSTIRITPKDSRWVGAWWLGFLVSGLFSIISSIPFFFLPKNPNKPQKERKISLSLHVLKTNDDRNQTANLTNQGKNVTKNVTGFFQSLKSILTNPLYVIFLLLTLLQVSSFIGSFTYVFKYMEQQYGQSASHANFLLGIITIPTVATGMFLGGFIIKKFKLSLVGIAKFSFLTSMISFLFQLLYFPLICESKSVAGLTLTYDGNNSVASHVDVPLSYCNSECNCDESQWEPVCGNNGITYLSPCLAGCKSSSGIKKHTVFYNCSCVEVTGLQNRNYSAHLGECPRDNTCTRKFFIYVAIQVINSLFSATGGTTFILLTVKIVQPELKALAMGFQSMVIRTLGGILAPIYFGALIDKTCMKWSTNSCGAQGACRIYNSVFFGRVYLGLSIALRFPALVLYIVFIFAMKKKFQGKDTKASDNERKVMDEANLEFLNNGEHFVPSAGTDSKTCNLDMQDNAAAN

[3] = molecular target: T3, OATP2B1 (Homo sapiens, UniProt O94956); conditions: for classification as OATP2B1 inhibitor/stimulator (single-point): 20 μM
T3 sequence (O94956 1-709): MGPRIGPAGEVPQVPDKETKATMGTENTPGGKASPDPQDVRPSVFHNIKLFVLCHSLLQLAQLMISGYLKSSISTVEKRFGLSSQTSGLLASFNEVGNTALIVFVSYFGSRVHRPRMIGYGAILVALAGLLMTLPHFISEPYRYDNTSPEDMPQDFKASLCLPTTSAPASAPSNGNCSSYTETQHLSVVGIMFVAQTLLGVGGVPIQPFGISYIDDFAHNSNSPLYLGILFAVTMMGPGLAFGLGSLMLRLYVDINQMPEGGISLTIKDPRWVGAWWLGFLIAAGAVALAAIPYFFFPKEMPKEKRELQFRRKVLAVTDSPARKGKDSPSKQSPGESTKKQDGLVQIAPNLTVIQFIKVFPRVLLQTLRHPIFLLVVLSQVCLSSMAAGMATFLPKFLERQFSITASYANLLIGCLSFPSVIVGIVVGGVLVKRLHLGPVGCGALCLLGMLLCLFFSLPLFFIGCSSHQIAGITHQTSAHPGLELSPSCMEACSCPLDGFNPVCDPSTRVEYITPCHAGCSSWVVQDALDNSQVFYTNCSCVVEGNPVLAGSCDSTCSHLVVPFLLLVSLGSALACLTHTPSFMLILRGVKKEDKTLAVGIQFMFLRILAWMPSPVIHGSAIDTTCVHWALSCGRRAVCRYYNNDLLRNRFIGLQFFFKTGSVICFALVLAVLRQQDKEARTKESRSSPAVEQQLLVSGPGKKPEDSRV

[4] = test system: OATP1B1, OATP1B3, and OATP2B1; test: Classification of specific and general OATP inhibitors; conditions: 20 μM, inhibitor = at least 50% inhibition
[5] = test system: BCRP; conditions: cited from earlier work
[6] = test system: MDR1; conditions: read-out: IC50 (MDR1); cited from earlier work
[7] = test system: MRP2; conditions: read-out: IC50 (MRP2); cited from earlier work
[8] = molecular target: T3, OATP2B1; test: Transport kinetics of substrate uptake in OATP2B1-HEK293 cells; type: cell-based
[9] = OATP2B1 mediated uptake, HEK293

Which “OATP1B1 Inhib %” value [1] does the source give for N[C@@H]1C[C@H]1c1ccccc1 (racemic) [Tranylcypromine] here?
Its value is -9.5%.

And the “OATP1B3 Inhib %” value [2]?
The value was -9.3%.

What about the “OATP2B1 Inhib %” value [3] of the same molecule?
Its value is 15.5%.

What does the source list for OCCN1CCN(CCC=C2c3ccccc3Sc3ccc(C(F)(F)F)cc32)CC1 [Flupenthixol]?
OATP1B3 Inhib % ([2]; human): 13.5%; OATP2B1 Inhib % ([3]; human): 9.5%

For CCOc1ccc(-c2nc3cc(-c4nc5cc(N6CCN(C)CC6)ccc5[nH]4)ccc3[nH]2)cc1 [Hoechst 33342], which “OATP inhibitor classification based on single-point inhibition assays” value (shortened to “OATP inhibitor classification based”) [4] is on record?
The value was “OATP1B3, only three specific inhibitors”.

For COc1ccc2c3c([nH]c2c1)[C@H](CC(C)C)N1C(=O)[C@H](CCC(=O)OC(C)(C)C)NC(=O)[C@@H]1C3 [KO143], which “concentration that completely inhibits BCRP” value [5] is on record?
The value was 1 µM.

For CN(C)C(=O)CCSC(SCCC(=O)O)c1cccc(/C=C/c2ccc3ccc(Cl)cc3n2)c1 (stereo not drawn) [MK571], which IC50 [6] is on record?
The IC50 was 26 µM.

What about the IC50 [7] of the same molecule?
The IC50 was 10 µM.

What about the IC50 ([5]; read-out: IC50 (BCRP)) of the same molecule?
The IC50 was 50 µM.

Which “OATP1B1 Inhib %” value [1] does the source give for CN(C)c1ccc(C=Cc2cc[n+](C)cc2)cc1 [N-methylpyridinium, ASP+] here?
The value was 27.9%.

What about the “OATP1B3 Inhib %” value [2] of the same molecule?
The value was -2.3%.

And the “OATP2B1 Inhib %” value [3]?
The value was 12.8%.

Which results are given for O=C(O)C(=O)O.[NH-][C@@H]1CCCC[C@H]1[NH-].[Pt+2] [Oxaliplatin]?
OATP1B1 Inhib % [1]: 13.0%; OATP1B3 Inhib % [2]: 9.9%; OATP2B1 Inhib % [3]: 8.2%

With C[C@@H]1NC(=O)[C@H](C[C@@](C)(O)CO)NC(=O)[C@H]2NC(=O)[C@H](C)NC(=O)[C@@H]3C[C@H](O)CN3C(=O)[C@@H](CSc3[nH]c4ccccc4c32)NC(=O)[C@H]([C@@H](C)O)NC1=O [Phalloidin] (cyclo(AT[dC][cisHyp]A[X1][Leu(4R-OH,5-OH)]); thioether 3-6) as the molecule, how does the “OATP1B3 Inhib %” value ([2]; human) read?
The value was 36.2%.

And the “OATP2B1 Inhib %” value ([3]; human)?
Its value is 24.1%.

With COC(=O)N[C@H](C(=O)N[C@@H](Cc1ccccc1)[C@@H](O)CN(Cc1ccc(-c2ccccn2)cc1)NC(=O)[C@@H](NC(=O)OC)C(C)(C)C)C(C)(C)C [atazanavir, Atazanavir] as the molecule, how does the “OATP inhibitor classification based” value [4] read?
The value was “general OATP inhibitors”.

For Clc1ccccc1C(c1ccccc1)(c1ccccc1)n1ccnc1 [clotrimazole, Clotrimazole], which “classification as OATP1B3 inhibitor/stimulator (single-point)” value [2] is on record?
The value was “stimulator”.

With COc1cccc2c1C(=O)c1c(O)c3c(c(O)c1C2=O)C[C@@](O)(C(=O)CO)C[C@@H]3O[C@H]1C[C@H](N)[C@H](O)[C@H](C)O1 [doxorubicin, Doxorubicin] as the molecule, how does the “OATP inhibitor classification based” value [4] read?
Its value is “specific inhibitors of one of the OATP transporters”.

With C#Cc1cccc(Nc2ncnc3cc(OCCOC)c(OCCOC)cc23)c1 [erlotinib, Erlotinib] as the molecule, how does the “OATP inhibitor classification based” value [4] read?
Its value is “specific inhibitors of one of the OATP transporters”.

Which Km [8, 9] does the source give for C[C@]12CC[C@@H]3c4ccc(OS(=O)(=O)O)cc4CC[C@H]3[C@@H]1CCC2=O [estrone-3-sulfate] here?
The Km was 38.2 ± 10.2 µM.

And the Vmax [8, 9]?
The Vmax was 455.2 ± 55.36 pmol/mg protein/min.

What about the “mean uptake of model substrate in OATP2B1 expressing HEK293 cells compared to passive uptake in mock-transfected cells” value ([8]; n = 51 experiments) of the same molecule?
Its value is 44 times.

With CC(NCCC(c1ccccc1)c1ccccc1)c1ccccc1 (stereo not drawn) [fendiline, Fendiline] as the molecule, how does the “classification as OATP2B1 inhibitor/stimulator (single-point)” value [3] read?
The value was “stimulate”.

With COc1ccc2c(c1)c(CC(=O)O)c(C)n2C(=O)c1ccc(Cl)cc1 [indometacin, Indomethacin] as the molecule, how does the “OATP inhibitor classification based” value [4] read?
Its value is “specific inhibitors of one of the OATP transporters”.

For CC[C@H](C)C(=O)O[C@H]1C[C@@H](C)C=C2C=C[C@H](C)[C@H](CC[C@@H](O)C[C@@H](O)CC(=O)O)[C@H]21 [lovastatin acid], which “OATP inhibitor classification based” value [4] is on record?
Its value is “specific OATP1B1 inhibitors”.

Which “OATP inhibitor classification based” value [4] does the source give for O=C1c2c(O)ccc(O)c2C(=O)c2c(NCCNCCO)ccc(NCCNCCO)c21 [mitoxantrone, Mitoxantrone] here?
The value was “OATP1B3, only three specific inhibitors”.

Which “classification as OATP1B1 inhibitor/stimulator (single-point)” value ([1]; 20 μM) does the source give for CCc1nn(CCCN2CCN(c3cccc(Cl)c3)CC2)c(=O)n1CCOc1ccccc1 [nefazodone, Nefazodone] here?
Its value is “not interacting”.

What about the “classification as OATP1B3 inhibitor/stimulator (single-point)” value [2] of the same molecule?
Its value is “inhibitor”.

What about the “classification as OATP2B1 inhibitor/stimulator (single-point)” value [3] of the same molecule?
Its value is “inhibitor”.

With C[C@@H]1[C@H](O)[C@@H](C)/C=C/C=C/CC/C=C/C=C/C=C/C=C/C(O[C@H]2O[C@H](C)[C@@H](O)[C@H](N)[C@@H]2O)CC2O[C@](O)(CC(O)C(O)CCC(O)CC(O)CC(O)CC(=O)O[C@H]1C)CC(O)C2C(=O)O (stereo partly drawn) [nystatin, Nystatin] as the molecule, how does the “OATP1B3 Inhib %” value [2] read?
Its value is 74.9%.

And the “OATP2B1 Inhib %” value [3]?
Its value is 23.4%.

Which “OATP inhibitor classification based” value [4] does the source give for CC[C@H](C)C(=O)O[C@H]1C[C@H](O)C=C2C=C[C@H](C)[C@H](CC[C@@H](O)C[C@@H](O)CC(=O)O)[C@H]21 [pravastatin, Pravastatin] here?
The value was “specific inhibitors of one of the OATP transporters”.

And the “OATP inhibitor classification based” value ([4]; listed as pravastatin acid)?
The value was “specific OATP1B1 inhibitors”.

For CC(=O)[C@H]1CC[C@H]2[C@@H]3CCC4=CC(=O)CC[C@]4(C)[C@H]3CC[C@]12C [progesterone, Progesterone], which “classification as OATP2B1 inhibitor/stimulator (single-point)” value [3] is on record?
Its value is “stimulate”.

With CCC(C)(C)C(=O)O[C@H]1C[C@@H](C)C=C2C=C[C@H](C)[C@H](CC[C@@H](O)C[C@@H](O)CC(=O)O)[C@H]21 [simvastatin acid] as the molecule, how does the “OATP inhibitor classification based” value [4] read?
The value was “specific OATP1B1 inhibitors”.

With O=C(O)c1cc(/N=N/c2ccc(S(=O)(=O)Nc3ccccn3)cc2)ccc1O [sulfasalazine, Sulfasalazine] as the molecule, how does the “OATP inhibitor classification based” value [4] read?
The value was “general OATP inhibitors”.

For C[C@]12CC[C@H]3[C@@H](CCC4=CC(=O)CC[C@@]43C)[C@@H]1CC[C@@H]2O [testosterone, Testosterone], which “classification as OATP2B1 inhibitor/stimulator (single-point)” value [3] is on record?
The value was “stimulate”.

Which “OATP inhibitor classification based” value [4] does the source give for CC[C@]1(O)C[C@H]2CN(CCc3c([nH]c4ccccc34)[C@@](C(=O)OC)(c3cc4c(cc3OC)N(C=O)[C@H]3[C@@](O)(C(=O)OC)[C@H](OC(C)=O)[C@]5(CC)C=CCN6CC[C@]43[C@@H]65)C2)C1 [vincristine, Vincristine] here?
Its value is “specific inhibitors of one of the OATP transporters; also recorded: OATP1B3, only three specific inhibitors”.

What about the “OATP inhibitor classification based” value ([4]; listed as Vincristine) of the same molecule?
Its value is “specific inhibitor of OATP1B3”.

Which “OATP2B1 Inhib %” value [3] does the source give for Olmesartan here?
The value was -7.9%.

What does the source list for “cholecystokinin octapeptide [cholecystokinin octapeptide (CCK-8)]”?
OATP1B3 Inhib % [2]: 96.9%; OATP2B1 Inhib % [3]: 60.1%
